Measurements taken from patent US20220031680A1, “Donecopride As Neuroprotective Agent In the Treatment of Neurodegenerative Diseases” (priority 2018, published 2022).

Tested on: dopaminergic TH-positive neurons injured with MPP+
Experiment: Survival and neurite network of TH neurons in primary mesencephalic culture injured with MPP+
Assay type: cell-based, rat
Settings: MPP+ 4 μM 48 h; 1 h pre-incubation
Experimental: The aim of the present study was to investigate the neuroprotective effect of MR36014 and MR33583 (at 4 concentrations) on dopaminergic TH-positive neurons injured with MPP^+. The test compounds were pre-incubated for 1 hour before MPP^+ application (4 μM for 48 h). The neuroprotective effect (survival and neurite network) of test compounds was investigated. In addition, the effect on the cytoplasmic alpha-synuclein accumulation was studied.
Rat dopaminergic neurons were cultured as described by Callizot et al. (2019) PLoS One 14:e0215277 and Visanji et al. (2008) FASEB J. 22:2488-2497. Briefly, pregnant female rat (Wistar) of 15 days of gestation were killed using a deep anesthesia with CO2 chamber and a cervical dislocation. The midbrains obtained from 15-day-old rat embryos (Janvier, France) were dissected under a microscope. […]
Midbrains were dissociated by trypsinisation for 20 min at 37° C. […] Viable cells were counted in a Neubauer cytometer using the trypan blue exclusion test. […]
Briefly, on day 6 of culture, the medium was removed, and fresh medium was added, with or without test compounds and with or without MPP^+ for 48 hours diluted in control medium. 6 wells per condition were assessed. […]
Test compounds were tested in 96-well plate (n=6 culture wells per condition). […] The following conditions were assessed: […]

SMILES	concentrations protecting the neurite network of TH neurons	concentrations improving TH neuron survival
COc1cc(N)c(F)cc1C(=O)CCC1CCN(CC2CCCCCC2)CC1 [MR36014]	all investigated doses	–
COc1cc(N)c(F)cc1C(=O)CCC1CCN(CC2CCCC2)CC1 [MR33583]	–	100 nM
